# Source: PMC4963475, “Two functionally distinct kinetochore pools of BubR1 ensure accurate chromosome segregation” (Nature Communications, 2016)
# Non-standard residues stand in square brackets, D forms with d. Residues, ends and D or L forms follow the SMILES beside them. pT = C[C@@H](OP(=O)(O)O)[C@H](N)C(=O)O; Nle = CCCC[C@H](N)C(=O)O
# What was measured:
# BubR1/Bub3 = biological target: T1, BubR1/Bub3 (Homo sapiens, UniProt O43684+O60566); test: MicroScale Thermophoresis (MST) affinity of MELT peptides for BubR1/Bub3; type: binding; details: for Binding of BubR1/Bub3 to phosphorylated MELT peptide, in words: 50 mM NaCl
# T1 construct: made in house; host or cells: HEK293 cells (transient co-transfection)
# Protocol: To determine the affinity of the complexes to MELTp repeats, we used MicroScale Thermophoresis (MST). Purified BubR1/Bub3 and Bub1(1–553)/Bub3 complexes were fluorescently labelled with maleimide chemistry for these measurements and tested for their ability to bind phosphorylated MELT12, MELT16 and MELT18 peptides (Fig. 2e–g; Supplementary Fig. 2). […] We conducted the affinity measurements at 50 mM NaCl as this produced the best quality data for the Bub1(1–553)/Bub3 complex.
# MST experiments were performed on a NanoTemper Monolith NT.115 instrument with blue/red channels. Both complexes, BubR1/Bub3 and Bub1(1–553)/Bub3, were labelled using the Monolith NT Protein Labeling kit RED-MALEIMIDE (NanoTemper Technologies GmbH) according to the supplied protocol. The labelling efficiency was ∼90% and 75%, respectively, and it was estimated by independent measurements of the protein concentration combining spectroscopic measurements and a NT-647 red dye calibration curve in the corresponding MST interaction buffer. Samples were prepared in MST buffer (50 mM HEPES (pH 7.8), 200 mM NaCl, 0.5 mM TCEP, 0.05% Tween 20 or 50 mM Tris (pH 7.8), 50 mM NaCl, 0.5 mM TCEP and 0.05% Tween 20), loaded into premium coated capillaries and measurements were performed at 40% MST power. Laser off/on times were 5 and 30 s, respectively. The fluorescently labelled BubR1/Bub3 and Bub1(1–553)/Bub3 were used at concentrations of 25 and 12.5 nM, respectively, at 40% light-emitting diode power for all peptides except for the double-phosphorylated MELT12 peptide in MST buffer 50 mM Tris (pH 7.8), 50 mM NaCl, 0.5 mM TCEP and 0.05% Tween 20 that were performed at 4 nM concentration of the labelled proteins and 80% light-emitting diode power. […] The fraction of bound protein was derived from the averaged (1 s averaged) normalized fluorescence signals at t=8 s of the labelled complexes at different ligand concentrations. […] The number of independent repeats was three for all measurements and error bars show the s.d. between these independent repeats.
# Bub1(1–553)/Bub3 = biological target: T2, Bub1(1–553)/Bub3 (Homo sapiens, UniProt O43683+O43684); test: MicroScale Thermophoresis (MST) affinity of MELT peptides for Bub1(1–553)/Bub3; type: binding; details: for Binding of Bub1(1–553)/Bub3 to phosphorylated MELT peptide, in words: 50 mM NaCl
# T2 construct: 15 μg 3 × FLAG–Bub1(1–553)-expressing plasmid; made in house; host or cells: HEK293 cells (transient co-transfection)
# Text: We next wanted to quantitatively compare the ability of BubR1/Bub3 and Bub1/Bub3 to bind MELTp repeats. For this, we purified a FLAG–Bub1(1–553)/Bub3 complex in parallel with FLAG–BubR1/Bub3 (we could not obtain sufficient yields of the full-length Bub1/Bub3 complex, but have recently shown that Bub1 1–553 fully supports SAC signalling[29]). To determine the affinity of the complexes to MELTp repeats, we used MicroScale Thermophoresis (MST). Purified BubR1/Bub3 and Bub1(1–553)/Bub3 complexes were fluorescently labelled with maleimide chemistry for these measurements and tested for their ability to bind phosphorylated MELT12, MELT16 and MELT18 peptides (Fig. 2e–g; Supplementary Fig. 2). The binding of BubR1/Bub3 to MELT12 was strongly dependent on phosphorylation and the measured affinity was sensitive to the salt concentration in the buffer as expected for an interaction depending on electrostatic interactions with the phosphorylated threonine[26] (Fig. 2e–g; Supplementary Fig. 2C). We conducted the affinity measurements at 50 mM NaCl as this produced the best quality data for the Bub1(1–553)/Bub3 complex.
# Ten 15-cm dishes were each seeded with 6 × 10^6 HEK293 cells and the next day each transfected with 15 μg 3 × FLAG–BubR1 or 15 μg 3 × FLAG–Bub1(1–553)-expressing plasmid and 15 μg untagged Bub3-expressing plasmid using lipofectamine 2000 (Invitrogen). Forty-eight hours after transfection, the cells were collected by trypsination and cells washed in cold PBS with 1 mM phenylmethyl sulphonyl fluoride. The cells were resuspended in 5 ml buffer A (350 mM NaCl, 50 mM Tris·HCl (pH 8.0), 0.05% NP-40 and protease inhibitor cocktail (Roche)) and lysed using a nitrogen cavitation bomb. Lysate was clarified by centrifugation and then incubated with 300 μl FLAG-affinity resin (Sigma-Aldrich) for 90 min at 4 °C. The FLAG resin was washed with 20 ml buffer A and proteins eluted with three times 300 μl buffer A containing […] 3 × FLAG peptide (Sigma). The eluates were pooled and concentrated to 500 μl and loaded on a Superdex 200 10/300 GL column equilibrated with buffer B (150 mM NaCl, 25 mM HEPES·KOH (pH 7.8), 5% glycerol and 0.5 mM TCEP) and peak fractions eluting at ∼500 kDa pooled and concentrated using a vivaspin-4 concentration device. Proteins were stored at −80 °C.
# MST experiments were performed on a NanoTemper Monolith NT.115 instrument with blue/red channels. […] The fluorescently labelled protein complexes were mixed with equivalent volumes (10 μl) of a twofold serial dilution of the different peptides starting at concentrations between 10 and 20 times the calculated KD. The fraction of bound protein was derived from the averaged (1 s averaged) normalized fluorescence signals at t=8 s of the labelled complexes at different ligand concentrations. […]
# HeLa cells = details: Bub1 RNAi 48 h, nocodazole 2 h, reversine 0.5 μM, 25–35% without reversine
# Protocol: (a) Outline of the synchronization protocol used in this study. Left, RNAi and rescue protocol; right, Bub1 CRISPR/Cas9 knockout protocol. (b) HeLa cells were treated with a control RNAi oligo (luciferase) or an RNAi oligo targeting Bub1 for 48 h and arrested in mitosis using nocodazole for 2 h. Cells were fixed and stained with 4,6-diamidino-2-phenylindole (DAPI), CREST (centromere marker) and Bub1 antibodies. (c,e,g,i) The kinetochore levels of Bub1, BubR1 and KNL1 were determined in the indicated conditions and normalized to CREST. An unpaired t-test was used for statistical comparison of the different samples in e. […] (f) HeLa cells were transfected with Cas9 protein with guide RNA against Bub1 gene for 96 h and treated with nocodazole for 2 h. […] At least 160 individual kinetochores from eight cells were measured in each condition. […]
# Cells growing on coverslips were washed once with PBS and fixed with 4% paraformaldehyde in PHEM buffer (60 mM PIPES, 25 mM HEPES, pH 6.9, 10 mM EGTA and 4 mM MgSO4) for 20 min at room temperature. […] Z-stacks 200 nm apart was recorded on a Deltavision Elite microscope (GE Healthcare), using a × 100 oil objective followed by deconvolution using Softworx before quantification. Protein intensity on kinetochores was quantified by drawing a circle closely along the rod-like CREST staining covering the interested outer kinetochore protein staining on both ends. […]
# T1 sequence (O60566 whole entry): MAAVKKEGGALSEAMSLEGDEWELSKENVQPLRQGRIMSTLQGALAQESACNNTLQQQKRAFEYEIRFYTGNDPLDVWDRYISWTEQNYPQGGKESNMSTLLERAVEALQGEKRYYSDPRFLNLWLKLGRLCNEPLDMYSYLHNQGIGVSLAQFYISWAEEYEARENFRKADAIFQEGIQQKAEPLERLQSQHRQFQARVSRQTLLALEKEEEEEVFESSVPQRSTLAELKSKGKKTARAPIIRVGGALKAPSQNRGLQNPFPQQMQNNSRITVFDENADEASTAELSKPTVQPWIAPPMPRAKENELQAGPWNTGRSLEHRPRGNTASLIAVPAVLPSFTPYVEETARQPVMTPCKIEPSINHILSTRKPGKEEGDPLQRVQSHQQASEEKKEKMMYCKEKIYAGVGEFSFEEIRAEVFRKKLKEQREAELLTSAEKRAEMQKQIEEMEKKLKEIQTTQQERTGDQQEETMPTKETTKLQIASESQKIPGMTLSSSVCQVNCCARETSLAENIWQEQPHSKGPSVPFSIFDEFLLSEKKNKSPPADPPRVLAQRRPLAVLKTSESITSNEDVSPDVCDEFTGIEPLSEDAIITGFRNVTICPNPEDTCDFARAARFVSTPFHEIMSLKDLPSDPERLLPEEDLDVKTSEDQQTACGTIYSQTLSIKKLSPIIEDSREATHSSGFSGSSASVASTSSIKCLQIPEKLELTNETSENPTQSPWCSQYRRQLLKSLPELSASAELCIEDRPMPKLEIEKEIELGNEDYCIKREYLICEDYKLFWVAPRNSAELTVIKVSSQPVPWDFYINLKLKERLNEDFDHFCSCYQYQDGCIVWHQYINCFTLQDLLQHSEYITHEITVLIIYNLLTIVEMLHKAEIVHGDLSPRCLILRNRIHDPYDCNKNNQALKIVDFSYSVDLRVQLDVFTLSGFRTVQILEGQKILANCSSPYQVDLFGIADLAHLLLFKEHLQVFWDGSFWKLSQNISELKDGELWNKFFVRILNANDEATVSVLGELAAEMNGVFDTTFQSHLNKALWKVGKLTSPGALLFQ
# T1 sequence (O43684 whole entry): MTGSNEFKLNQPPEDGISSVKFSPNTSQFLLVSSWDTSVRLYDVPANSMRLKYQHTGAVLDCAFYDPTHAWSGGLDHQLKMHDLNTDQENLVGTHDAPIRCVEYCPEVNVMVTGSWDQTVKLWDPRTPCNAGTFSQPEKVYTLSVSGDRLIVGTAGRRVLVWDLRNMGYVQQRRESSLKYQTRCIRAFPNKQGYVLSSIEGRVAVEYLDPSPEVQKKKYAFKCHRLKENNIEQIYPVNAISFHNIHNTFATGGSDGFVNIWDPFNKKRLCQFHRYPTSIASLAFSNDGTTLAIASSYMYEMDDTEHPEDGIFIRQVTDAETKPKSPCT
# T2 sequence (O43683 1-553 limits assumed): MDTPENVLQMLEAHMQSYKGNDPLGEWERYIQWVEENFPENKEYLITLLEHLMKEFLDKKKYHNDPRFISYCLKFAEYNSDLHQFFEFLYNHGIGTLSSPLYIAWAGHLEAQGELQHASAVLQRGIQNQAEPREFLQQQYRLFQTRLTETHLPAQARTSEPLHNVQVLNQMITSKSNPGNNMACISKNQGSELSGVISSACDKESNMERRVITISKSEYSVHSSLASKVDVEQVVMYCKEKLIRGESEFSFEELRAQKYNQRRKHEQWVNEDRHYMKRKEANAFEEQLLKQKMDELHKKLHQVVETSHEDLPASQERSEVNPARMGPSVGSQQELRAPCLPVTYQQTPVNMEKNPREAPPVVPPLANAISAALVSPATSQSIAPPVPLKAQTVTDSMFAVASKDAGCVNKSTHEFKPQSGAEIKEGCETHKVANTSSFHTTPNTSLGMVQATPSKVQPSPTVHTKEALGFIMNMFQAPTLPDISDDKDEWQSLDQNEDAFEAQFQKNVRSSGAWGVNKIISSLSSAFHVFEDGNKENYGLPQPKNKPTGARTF
# T2 sequence (O43684 whole entry): as the sequence (O43684 whole entry) above
Compound,"Binding of BubR1/Bub3 to phosphorylated MELT peptide, in words (BubR1/Bub3)","Binding of Bub1(1–553)/Bub3 to phosphorylated MELT peptide, in words (Bub1(1–553)/Bub3)",BubR1 kinetochore levels remaining (normalized to CREST) (HeLa cells) [%],"BubR1/Bub3 KD (BubR1/Bub3; 50 mM Tris pH 7.8, 50 mM NaCl, 0.5 mM TCEP, 0.05% Tween 20, labelled BubR1/Bub3 25 nM (4 nM for double-phosphorylated MELT12), three independent repeats)","Bub1(1–553)/Bub3 KD (Bub1(1–553)/Bub3; 50 mM Tris pH 7.8, 50 mM NaCl, 0.5 mM TCEP, 0.05% Tween 20, labelled Bub1(1–553)/Bub3 12.5 nM (4 nM for double-phosphorylated MELT12), three independent repeats)"
CCCC[C@H](NC(=O)[C@H](CC(=O)O)NC(=O)[C@H](CC(N)=O)NC(=O)[C@H](CCCCN)NC(=O)[C@H](CC(=O)O)NC(=O)[C@H](CC(=O)O)NC(=O)[C@H](CCC(=O)O)NC(=O)COCCOCCNC(=O)[C@H](CS)NC(=O)COCCOCCNC(=O)CCCC[C@@H]1SC[C@@H]2NC(=O)N[C@@H]21)C(=O)N[C@@H](CC(=O)O)C(=O)N[C@H](C(=O)N[C@H](C(=O)N[C@@H](CCCCN)C(=O)N[C@@H](CO)C(=O)N[C@@H](Cc1ccc(O)cc1)C(=O)N[C@H](C(=O)N[C@H](C(=O)N[C@@H](CCC(=O)O)C(=O)N[C@H](C(=O)N[C@@H](CC(N)=O)C(N)=O)[C@@H](C)CC)[C@@H](C)CC)[C@@H](C)O)[C@@H](C)OP(=O)(O)O)[C@@H](C)CC [MELT12p],bound,bound,,,
CCCC[C@H](NC(=O)[C@H](CC(=O)O)NC(=O)[C@H](CC(N)=O)NC(=O)[C@H](CCCCN)NC(=O)[C@H](Cc1c[nH]cn1)NC(=O)[C@H](CC(N)=O)NC(=O)[C@@H](N)CCC(=O)O)C(=O)N[C@@H](CC(=O)O)C(=O)N[C@H](C(=O)N[C@H](C(=O)N[C@@H](CCC(N)=O)C(=O)N[C@@H](CO)C(=O)N[C@@H](CS)C(=O)N[C@@H](CCCC)C(=O)N[C@H](C(=O)N[C@@H](CCC(=O)O)C(=O)N[C@H](C(=O)N[C@@H](CC(=O)O)C(=O)N[C@@H](Cc1ccc(O)cc1)C(N)=O)[C@@H](C)CC)C(C)C)[C@@H](C)OP(=O)(O)O)[C@@H](C)CC [MELT16p] (H-ENHKND[Nle]DI[pT]QSC[Nle]VEIDY-NH2; N-terminus assumed),bound,bound,,,
c1nc2nc(Nc3ccc(N4CCOCC4)cc3)nc(NC3CCCCC3)c2[nH]1 [reversine],,,~10,,
"TDNYSDLEV-Tp-DSHTVFID-amide [MELT18p, single-phosphorylated MELT18 peptide from KNL1]",no binding was detected,no binding was detected,,No binding,No binding
